# Assays:
# [1] = target: T1, Or83b receptor (Drosophila melanogaster, UniProt Q9VNB5); test: cAMP production in Schneider cells expressing Or83b receptor; type: cell-based
# T1 construct: His (from vector pAc5.1/V5-His B) (C); expressed in transfected cells
# T1 sequence (Q9VNB5 1-486): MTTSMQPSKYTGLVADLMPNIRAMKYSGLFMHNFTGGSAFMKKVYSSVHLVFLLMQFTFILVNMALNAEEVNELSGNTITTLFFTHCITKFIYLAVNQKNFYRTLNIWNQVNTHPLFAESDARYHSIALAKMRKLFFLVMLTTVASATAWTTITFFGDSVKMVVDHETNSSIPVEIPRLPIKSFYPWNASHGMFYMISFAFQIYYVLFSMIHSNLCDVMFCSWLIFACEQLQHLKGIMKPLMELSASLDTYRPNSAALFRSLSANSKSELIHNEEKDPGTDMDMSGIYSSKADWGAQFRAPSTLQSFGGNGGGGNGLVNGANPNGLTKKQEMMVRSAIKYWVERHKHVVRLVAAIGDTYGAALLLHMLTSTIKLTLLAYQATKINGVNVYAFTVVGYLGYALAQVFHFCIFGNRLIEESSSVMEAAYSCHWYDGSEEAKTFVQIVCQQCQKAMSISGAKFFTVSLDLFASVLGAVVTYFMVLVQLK
# Experimental: Cells are grown on dishes and the media changed the day before the treatment. When cells are approximately 95% confluent, media is aspirated and the cells are washed one time with about 5 mL of about 27° C. insect saline (170 mM NaCl, 6.0 mM KCl, 2.0 mM NaHCO3, 17.0 mM glucose, 6.0 mM NaH2PO4, 2.0 mM CaCl2, 4.0 mM MgCl2; pH 7.0). About 20 mL of insect saline is added, and cells are harvested by gentle scraping. An aliquot of the cells is counted by hemocytometer, and the cells are then centrifuged for about 5 minutes at about 1000 RPM. Cells are resuspended to give about 3×10^6 cells per mL. IBMX is added to about 200 μM. Then about 1 mL of cell suspension is aliquoted for treatment. Forskolin (cAMP inducing agent), tyramine or different composition candidates are added, and the cells are incubated at about 27° C. for about 10 minutes.
# Treated cells are centrifuged at about 13000 g for about 10 seconds. The solution is aspirated and about 1 mL of about −20° C. 70% ethanol is added. The cell pellet is disrupted by vortexing and the samples placed at about −20° C. overnight. Following the ethanol extraction, cellular debris is pelleted by centrifugation at about 13000 g for about 5 minutes. The supernatant is transferred to a tube and lyophilized to dryness in a rotary speed-vac. The resulting extract is resuspended in about 100 μL TE and used for the cAMP assay.
# The cAMP assay is based on competition binding between endogenous cAMP and ^3H-cAMP to a cAMP binding protein. The ^3H-cAMP Biotrak system (Amersham Biosciences) is used for this assay as per the manufacturer's instructions. Briefly, about 50 μL of the cellular extract is incubated with about 50 μL ^3H-cAMP and about 100 μL cAMP binding protein in an ice bath for about 2-4 hours. Charcoal (about 100 μL) is then added and the solution centrifuged for about 3 minutes at about 4° C. About 200 μL of the reaction mixture is removed and levels of ^3H-cAMP are determined by scintillation counting. Levels of endogenous cAMP from the cells are calculated using a standard curve with cold cAMP ranging from about 0 to 16 pmol per reaction.
# To ensure that the cAMP cascade in this cell model is functionally active, forskolin, a cAMP inducer, is used as standard agent. Cyclic-AMP levels are measured using the cAMP assay described above in Example 2. […]
# To determine the effect of various plant essential oils on intracellular cAMP production and the tyramine-dependent changes of cAMP in cells expressing one of the olfactory receptors, cells from each cell model are treated with LFO (about 50 μg/ml) and BSO (about 50 μg/ml) in the presence and absence of tyramine (about 20 μM) and forskolin (about 10 μM) and intracellular cAMP is thereafter quantified using the cAMP assay described above in Example 2.
# [2] = target: T2, Or43a receptor (Drosophila melanogaster, UniProt P81917, L154V); test: Intracellular Ca^2+ mobilization in Schneider cells expressing Or43a receptor; type: cell-based
# T2 construct: His (from vector pAc5.1/V5-His B) (C); expressed in transfected cells
# T2 sequence (P81917 whole entry L154V): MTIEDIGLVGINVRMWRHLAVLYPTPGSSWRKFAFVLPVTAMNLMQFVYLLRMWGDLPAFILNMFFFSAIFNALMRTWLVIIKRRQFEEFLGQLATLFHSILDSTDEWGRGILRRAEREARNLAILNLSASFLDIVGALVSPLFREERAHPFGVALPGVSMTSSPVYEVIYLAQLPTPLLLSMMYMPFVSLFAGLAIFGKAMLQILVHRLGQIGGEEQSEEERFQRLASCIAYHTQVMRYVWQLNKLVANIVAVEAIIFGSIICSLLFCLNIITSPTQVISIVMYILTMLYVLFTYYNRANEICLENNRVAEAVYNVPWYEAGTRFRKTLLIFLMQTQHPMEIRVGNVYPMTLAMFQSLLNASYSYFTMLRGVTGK
compound,measurement,setting,value
NCCc1ccc(O)cc1 [tyramine],increase of cAMP production beyond the effect of forskolin by itself,[1]; forskolin-pretreated cells (about 10 μM),10-13%
same,increase in cAMP production,"[1]; tyramine about 20 μM, LFO and BSO about 50 μg/ml",approximately 34%
same,change in intracellular Ca^2+ levels (340/380 fluorescence ratio),[2]; before vs approximately 150 seconds after treatment,only negligibly
same,increase in intracellular calcium,"[2]; ionomycin about 2 μM, tyramine about 10 μM",~3.5 fold

# — patent US20080075796A1, “Compositions and Methods for Controlling Insects” (TyraTech, Inc., priority 2003, published 2008)
